Assay: Intravenous delivery of CR845 to canines (composite IV data from five studies, reference for bioavailability)
Conditions: dog, in vivo, average dose 0.029±0.029 mg/kg, ten kilogram dogs, thirty-six canines
Description: Each capsule of prototype formulation 1 contained: 1.6 mg spray dried CR845 in 90% Miglyol 812, 10% sodium caprate. Each capsule of prototype formulation 2 contained: 1.6 mg crystallized CR845 in 90% Miglyol 812, 10% sodium caprate. Each capsule of prototype formulation 3 contained: 1.6 mg spray dried CR845 in 90% Miglyol 812, 10% capric acid. Each capsule of prototype formulation 4 contained: 1.6 mg spray dried CR845 in 70% Miglyol 812 in 30% capric acid. Bioavailability (% f) is expressed as a percent of CR845 observed (calculated from the area under the curve: AUC) as compared with the total CR845 AUC observed after intravenous delivery of the same dose. Composite IV data from five separate studies with thirty-six canines was averaged and used for bioavailability calculations. […] The observed avg.

Q: With `CC(C)C[C@@H](NC(=O)[C@@H](Cc1ccccc1)NC(=O)[C@H](N)Cc1ccccc1)C(=O)N[C@H](CCCCN)C(=O)N1CCC(N)(C(=O)O)CC1` [CR845, D-Phe-D-Phe-D-Leu-D-Lys-[ω(4-aminopiperidine-4-carboxylic acid)]-OH] as the molecule, how does the Cmax read?
A: Its Cmax is 163 ± 39.2 ng/mL.

From US11033629B2, “Oral formulations of kappa opioid receptor agonists” (Cara Therapeutics, Inc., priority 2018, dated 2021)
